Assay results published in the supplement of paper PMC10307832.

Key:
Assay in all cases: relative viability (nuclei count vs DMSO), 5 days (fraction); higher = more cells survive
[1] = compound: CO[C@@H]1[C@H](N(C)C(=O)c2ccccc2)C[C@H]2O[C@]1(C)n1c3ccccc3c3c4c(c5c6ccccc6n2c5c31)C(=O)NC4 [Midostaurin] + CC(=O)c1c(C)c2cnc(Nc3ccc(N4CCNCC4)cn3)nc2n(C2CCCC2)c1=O [Palbociclib] (partner 0.5 µM)
Method in brief: (§1)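 Values are medians from duplicate plates. Each reflects relative viability, defined as the nuclei count of treated wells over that of vehicle wells. Lung cancer cell lines in 1536-well plates were pin-tool dosed one day after seeding with one drug alone or with a fixed anchor-drug dose plus five library-drug doses (not always all listed) in √10 steps, then fixed, stained and imaged at 4× after 5 days.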

[2] = compound: CO[C@@H]1[C@H](N(C)C(=O)c2ccccc2)C[C@H]2O[C@]1(C)n1c3ccccc3c3c4c(c5c6ccccc6n2c5c31)C(=O)NC4 [Midostaurin] + Cc1nc(Nc2ncc(C(=O)Nc3c(C)cccc3Cl)s2)cc(N2CCN(CCO)CC2)n1 [Dasatinib] (partner 0.075 µM)
Method in brief: as §1

[3] = compound: COc1cc(-c2nn([C@H]3CC[C@H](N4CCN(C(C)=O)CC4)CC3)c3ncnc(N)c23)ccc1NC(=O)c1cc2ccccc2n1C + CC(=O)c1c(C)c2cnc(Nc3ccc(N4CCNCC4)cn3)nc2n(C2CCCC2)c1=O [Palbociclib] (partner 0.5 µM)
Method in brief: as §1

[4] = compound: COc1cc(-c2nn([C@H]3CC[C@H](N4CCN(C(C)=O)CC4)CC3)c3ncnc(N)c23)ccc1NC(=O)c1cc2ccccc2n1C + CS(=O)(=O)N1CCN(Cc2cc3nc(-c4cccc5[nH]ncc45)nc(N4CCOCC4)c3s2)CC1 [Pictilisib] (partner 1 µM)
Method in brief: as §1

[5] = compound: COc1cc(-c2nn([C@H]3CC[C@H](N4CCN(C(C)=O)CC4)CC3)c3ncnc(N)c23)ccc1NC(=O)c1cc2ccccc2n1C + COc1cc2c(Oc3ccc(NC(=O)C4(C(=O)Nc5ccc(F)cc5)CC4)cc3F)ccnc2cc1OCCCN1CCOCC1 [Foretinib] (partner 0.25 µM)
Method in brief: as §1

Row | Cell Line | relative viability ([1]; first compound 0.01 µM) | relative viability ([1]; first compound 0.03162 µM) | relative viability ([1]; first compound 0.1 µM) | relative viability ([1]; first compound 0.3162 µM) | relative viability ([2]; first compound 0.01 µM) | relative viability ([2]; first compound 0.03162 µM) | relative viability ([2]; first compound 0.1 µM) | relative viability ([2]; first compound 0.3162 µM) | relative viability ([3]; first compound 0.0128 µM) | relative viability ([3]; first compound 0.04048 µM) | relative viability ([3]; first compound 0.128 µM) | relative viability ([3]; first compound 1.28 µM) | relative viability ([4]; first compound 0.0128 µM) | relative viability ([4]; first compound 0.04048 µM) | relative viability ([4]; first compound 0.128 µM) | relative viability ([4]; first compound 1.28 µM) | relative viability ([5]; first compound 0.0128 µM) | relative viability ([5]; first compound 0.04048 µM) | relative viability ([5]; first compound 0.128 µM) | relative viability ([5]; first compound 1.28 µM)
1 | NCI-H1792 | 0.593 | 0.709 | 0.635 | 0.634 | 0.793 | 0.779 | 0.669 | 0.611 | 0.663 | 0.626 | 0.657 | 0.636 | 0.237 | 0.191 | 0.306 | 0.354 | – | – | – | –
2 | LCLC-97TM1 | 0.276 | 0.233 | 0.251 | 0.244 | 0.822 | 0.798 | 0.827 | 0.968 | 0.22 | 0.194 | 0.241 | 0.191 | 0.229 | 0.107 | 0.227 | 0.281 | 1.06 | 0.692 | 0.864 | 0.887
3 | NCI-H1703 | – | – | – | – | – | – | – | – | – | – | – | – | 0.235 | 0.26 | 0.222 | 0.163 | 0.297 | – | 0.262 | 0.167
4 | LCLC-103H | 0.449 | 0.484 | 0.512 | 0.542 | 0.545 | 0.456 | 0.389 | 0.416 | 0.509 | 0.474 | 0.433 | 0.503 | 0.656 | 0.691 | 0.571 | 0.49 | 0.774 | 0.972 | 0.616 | 0.65
5 | PC-3 [JPC-3] | 0.561 | 0.554 | 0.546 | 0.602 | 0.952 | 0.893 | 1.07 | 1.01 | 0.588 | 0.621 | 0.529 | 0.676 | 0.65 | 0.791 | 0.721 | 0.764 | 1.07 | 1.14 | 1 | 1.06
6 | Calu-6 | – | – | – | – | – | – | – | – | – | – | – | – | 0.916 | 0.893 | 0.826 | 0.76 | 0.905 | 0.813 | 0.823 | 0.659
7 | NCI-H1648 | 0.35 | – | – | 0.285 | – | – | – | – | 0.263 | 0.275 | 0.242 | 0.333 | – | – | – | – | – | – | – | –
8 | EBC-1 | – | – | – | – | – | – | – | – | – | – | – | – | 0.407 | 0.447 | 0.416 | 0.393 | 0.104 | 0.0846 | 0.126 | 0.112
9 | NCI-H596 | – | – | – | – | 0.661 | 0.662 | 0.646 | 0.729 | – | – | – | – | 0.412 | 0.451 | 0.356 | 0.44 | 0.884 | 0.835 | 0.709 | 0.558
10 | NCI-H1299 | – | – | – | – | – | – | – | – | – | – | – | – | 0.681 | 0.806 | 0.668 | 0.385 | 1.13 | 1.23 | 1.14 | 1.08
11 | NCI-H2342 | 0.477 | 0.538 | 0.491 | 0.547 | 0.332 | 0.305 | 0.319 | 0.327 | 0.503 | 0.487 | 0.517 | 0.514 | – | – | – | – | 0.958 | 1.11 | 0.914 | 0.731
12 | IA-LM | – | – | – | – | – | – | – | – | – | – | – | – | 0.345 | 0.443 | 0.324 | 0.334 | 1.19 | 1.1 | 1.16 | 0.97
